These results are taken from PMC4078884 (Chemical science (Royal Society of Chemistry : 2010), 2014).

SMILES strings stand for the structures.

One experiment has as its target T1, EcIspG (Escherichia coli, UniProt P62620).
T1 sequence (P62620 1-372): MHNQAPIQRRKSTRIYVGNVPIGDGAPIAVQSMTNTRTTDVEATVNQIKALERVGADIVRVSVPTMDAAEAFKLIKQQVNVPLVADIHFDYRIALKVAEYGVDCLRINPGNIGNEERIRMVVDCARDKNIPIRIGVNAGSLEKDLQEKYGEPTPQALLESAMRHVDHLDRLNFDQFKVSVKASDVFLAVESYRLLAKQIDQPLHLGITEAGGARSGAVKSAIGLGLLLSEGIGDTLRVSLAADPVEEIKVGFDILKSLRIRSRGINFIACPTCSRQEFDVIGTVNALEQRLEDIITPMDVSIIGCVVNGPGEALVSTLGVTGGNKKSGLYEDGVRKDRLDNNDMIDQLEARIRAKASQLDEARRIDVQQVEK
In words: CW-EPR. The format is binding. The settings on record: 80 eq dithionite, 8 K.

In the next experiment the target is T2, PaIspG (Pseudomonas aeruginosa, UniProt Q9HXJ4).
T2 sequence (Q9HXJ4 1-371): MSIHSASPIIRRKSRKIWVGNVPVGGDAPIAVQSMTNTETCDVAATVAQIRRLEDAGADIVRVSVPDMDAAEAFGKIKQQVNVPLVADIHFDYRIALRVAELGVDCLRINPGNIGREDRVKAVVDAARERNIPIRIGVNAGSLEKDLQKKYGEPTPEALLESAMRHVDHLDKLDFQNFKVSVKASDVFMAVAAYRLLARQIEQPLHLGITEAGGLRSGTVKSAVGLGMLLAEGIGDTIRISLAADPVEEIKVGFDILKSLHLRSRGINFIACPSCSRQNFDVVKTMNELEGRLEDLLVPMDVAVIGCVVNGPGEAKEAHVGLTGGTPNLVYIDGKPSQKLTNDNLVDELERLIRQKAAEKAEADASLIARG
In words: CW-EPR. The format is binding. The settings on record: 80 eq dithionite, 8 K.

Turning to `C/C(=C\COP(=O)(O)OP(=O)(O)O)CS` [compound 8, thiolo-HMBPP], the CW-EPR result is recorded as “E. coli (A, D)” at EcIspG and “P. aeruginosa (B, E)” at PaIspG.
